Patent US20230250070A1, “DIHYDROOXAZOLE AND THIOUREA DERIVATIVES MODULATING THE NLRP3 INFLAMMASOME PATHWAY” (AC IMMUNE SA, priority 2020, published 2023)
pIC50: −log10 of the molar value.

How the values were obtained:
[1] = test system: NLRP3 inflammasome pathway; assay: NLRP3 inflammasome pathway activation assay, MSU stimulation, IL-1β release (AlphaLISA); type: cell-based; conditions: PMA-differentiated, LPS-primed human monocyte-like cells, MSU 150 µg/ml for 3 h
Protocol: (§1) The following assays were used to determine the inhibitory activity of test compounds on the NLRP3 inflammasome pathway using common stimuli Nigericin (Invivogen) or monosodium urate crystals (MSU) (Invivogen).
(§2) Human monocyte-like cells were cultured in RPMI-1640 Glutamax medium supplemented with 10% heat inactivated FCS and 50 U/ml penicillin-streptomycin (Life Technologies).
(§3) Human monocyte-like cells were seeded at 75000 per well in a 96-well plate and were differentiated overnight into macrophages with 10 ng/ml PMA (Phorbol Myristate Acetate). The following day, medium containing 10 ng/ml LPS (Lipopolysaccharide) were added. After 3 hours of LPS priming, concentrations of test compound in the range from 100 µM to 6 nM were added 30 min prior to NLRP3 inflammasome pathway stimulation with Nigericin 3.75 µM or MSU 150 µg/ml for 3 h.
(§4) For IL-1β quantification, supernatants were analyzed using AlphaLISA kits according to the manufacturer’s instructions (Perkin Elmer AlphaLISA AL220F). Briefly, in a 384-well OptiPlate™ microplate, 5 µl of sample was mixed, with 20 µl of AlphaLISA Anti-Analyte Acceptor beads (10 µg/mL final) and Biotinylated Antibody Anti-Analyte (1 nM final). Then, incubated 60 minutes at RT, then 25 µL of 2X SA-Donor beads (40 µg/mL final) were added and incubated 30 minutes at RT in the dark. Reading was done using an EnVision-Alpha Reader (PerkinElmer).
(§5) IC50(concentration corresponding to 50% inhibition) were determined using GraphPad Prism 8.

[2] = test system: NLRP3 inflammasome pathway; assay: NLRP3 inflammasome pathway activation assay, Nigericin stimulation, IL-1β release (AlphaLISA); type: cell-based; conditions: PMA-differentiated, LPS-primed human monocyte-like cells, Nigericin 3.75 µM for 3 h
Protocol: as §1, §2, §3, §4, §5

Row | Compound | pIC50 [1] | pIC50 [2] | pIC50 ([2]; Homo sapiens, 3 h)
1 | CCOC(=O)C1(c2cccnc2)CN=C(Nc2c3c(cc4c2CCC4)CCC3)O1 (single isomer, unassigned) [Example 11, Ethyl 2-((1,2,3,5,6,7-hexahydro-s-indacen-4-yl)amino)-5-(pyridin-3-yl)-4,5-dihydrooxazole-5-carboxylate] | > 6.00 | > 6.00 | –
2 | CCOC(=O)C1(c2ccc(OC)nc2)CN=C(Nc2c3c(cc4c2CCC4)CCC3)O1 (single isomer, unassigned) [Example 7, Ethyl 2-((1,2,3,5,6,7-hexahydro-s-indacen-4-yl)amino)-5-(6-methoxypyridin-3-yl)-4,5-dihydrooxazole-5-carboxylate] | > 6.00 | > 6.00 | –
3 | 2-((1,2,3,5,6,7-hexahydro-s-indacen-4-yl)amino)-5-(5-isopropylisoxazol-3-yl)-4,5-dihydrooxazole-5-carboxylate [Example 28] | > 6.00 | 5.00 to 6.00 | –
4 | CC(C)(O)c1cc(C2(C(=O)O)CN=C(Nc3c4c(cc5c3CCC5)CCC4)O2)no1 (centres unmarked) [Example 22, 2-((1,2,3,5,6,7-hexahydro-s-indacen-4-yl)amino)-5-(5-(2-hydroxypropan-2-yl)isoxazol-3-yl)-4,5-dihydrooxazole-5-carboxylic Acid] | > 6.00 | – | 5.00 to 6.00
5 | CC(C)(C)OC(=O)C1(c2ccno2)CN=C(Nc2c3c(cc4c2CCC4)CCC3)O1 (racemic) [Example 90, tert-butyl 2-((1,2,3,5,6,7-hexahydro-s-indacen-4-yl)amino)-5-(isoxazol-5-yl)-4,5-dihydrooxazole-5-carboxylate] | 5.00 to 6.00 | – | > 6.00
6 | CCOC(=O)C1(c2ccc(Cl)cc2)CN=C(Nc2c3c(cc4c2CCC4)CCC3)O1 (single isomer, unassigned) [Example 10a, Ethyl 5-(4-chlorophenyl)-2-((1,2,3,5,6,7-hexahydro-s-indacene-4-yl)amino)-4,5-dihydrooxazole-5-carboxylate] | > 6.00 | 4.52 to 5.00 | –
7 | CCOC(=O)C1(c2ccc(OC)nc2)CN=C(Nc2c3c(cc4c2CCC4)CCC3)O1 (centres unmarked) [Example 6, Ethyl 2-((1,2,3,5,6,7-hexahydro-s-indacen-4-yl)amino)-5-(6-methoxypyridin-3-yl)-4,5-dihydrooxazole-5-carboxylate] | > 6.00 | – | > 6.00
8 | CCOC(=O)C1(c2cnc(OC)nc2)CN=C(Nc2c3c(cc4c2CCC4)CCC3)O1 (racemic) [Example 32, ethyl 2-((1,2,3,5,6,7-hexahydro-s-indacen-4-yl)amino)-5-(2-methoxypyrimidin-5-yl)-4,5-dihydrooxazole-5-carboxylate] | > 6.00 | – | –
9 | COC(=O)C1(c2ccno2)CN=C(Nc2c3c(cc4c2CCC4)CCC3)O1 (racemic) [Example 87, methyl 2-((1,2,3,5,6,7-hexahydro-s-indacen-4-yl)amino)-5-(isoxazol-5-yl)-4,5-dihydrooxazole-5-carboxylate] | > 6.00 | – | –
10 | CCOC(=O)C1(c2cnccn2)CN=C(Nc2c3c(cc4c2CCC4)CCC3)O1 (racemic) [Example 49, ethyl 2-((1,2,3,5,6,7-hexahydro-s-indacen-4-yl)amino)-5-(pyrazin-2-yl)-4,5-dihydrooxazole-5-carboxylate] | > 6.00 | – | –
11 | CCCCCOC(=O)C1(c2cc(C(C)(C)O)on2)CN=C(Nc2c3c(cc4c2CCC4)CCC3)O1 (racemic) [Example 79, pentyl 2-((1,2,3,5,6,7-hexahydro-s-indacen-4-yl)amino)-5-(5-(2-hydroxypropan-2-yl)isoxazol-3-yl)-4,5-dihydrooxazole-5-carboxylate] | > 6.00 | – | –
12 | CCOC(=O)C1(c2ccon2)CN=C(Nc2c3c(cc4c2CCC4)CCC3)O1 (racemic) [Example 21B, ethyl 2-((1,2,3,5,6,7-hexahydro-s-indacen-4-yl)amino)-5-(isoxazol-3-yl)-4,5-dihydrooxazole-5-carboxylate] | > 6.00 | – | –
13 | CCOC(=O)C1(c2ccns2)CN=C(Nc2c3c(cc4c2CCC4)CCC3)O1 (single isomer, unassigned) [Example 43, ethyl 2-((1,2,3,5,6,7-hexahydro-s-indacen-4-yl)amino)-5-(isothiazol-5-yl)-4,5-dihydrooxazole-5-carboxylate] | > 6.00 | – | –
14 | CCCCOC(=O)C1(c2cc(C(C)(C)O)on2)CN=C(Nc2c3c(cc4c2CCC4)CCC3)O1 (racemic) [Example 76, butyl 2-((1,2,3,5,6,7-hexahydro-s-indacen-4-yl)amino)-5-(5-(2-hydroxypropan-2-yl)isoxazol-3-yl)-4,5-dihydrooxazole-5-carboxylate] | > 6.00 | – | –
15 | CCOC(=O)C1(c2cc(C(C)C)on2)CN=C(Nc2c3c(cc4c2CCC4)CCC3)O1 (racemic) [Example 21A, ethyl 2-((1,2,3,5,6,7-hexahydro-s-indacen-4-yl)amino)-5-(5-isopropylisoxazol-3-yl)-4,5-dihydrooxazole-5-carboxylate] | > 6.00 | – | –
16 | CCOC(=O)C1(c2cccs2)CN=C(Nc2c3c(cc4c2CCC4)CCC3)O1 (racemic) [Example 34, ethyl 2-((1,2,3,5,6,7-hexahydro-s-indacen-4-yl)amino)-5-(thiophen-2-yl)-4,5-dihydrooxazole-5-carboxylate] | 5.00 to 6.00 | – | –
17 | CCCCOC(=O)C1(c2nccs2)CN=C(Nc2c3c(cc4c2CCC4)CCC3)O1 (racemic) [Example 67, butyl 2-((1,2,3,5,6,7-hexahydro-s-indacen-4-yl)amino)-5-(thiazol-2-yl)-4,5-dihydrooxazole-5-carboxylate] | > 6.00 | – | –
18 | CCOC(=O)C1(c2ccn(C(C)C)n2)CN=C(Nc2c3c(cc4c2CCC4)CCC3)O1 (racemic) [Example 54, ethyl 2-((1,2,3,5,6,7-hexahydro-s-indacen-4-yl)amino)-5-(1-isopropyl-1 H-pyrazol-3-yl)-4,5-dihydrooxazole-5-carboxylate] | > 6.00 | – | –
19 | COC(=O)C1(c2ccon2)CN=C(Nc2c3c(cc4c2CCC4)CCC3)O1 (racemic) [Example 84, methyl 2-((1,2,3,5,6,7-hexahydro-s-indacen-4-yl)amino)-5-(isoxazol-3-yl)-4,5-dihydrooxazole-5-carboxylate] | > 6.00 | – | –
20 | CCOC(=O)C1(c2ccco2)CN=C(Nc2c3c(cc4c2CCC4)CCC3)O1 (racemic) [Example 36, ethyl 5-(furan-2-yl)-2-((1,2,3,5,6,7-hexahydro-s-indacen-4-yl)amino)-4,5-dihydrooxazole-5-carboxylate] | 5.00 to 6.00 | – | –
21 | CCOC(=O)C1(C2CCCO2)CN=C(Nc2c3c(cc4c2CCC4)CCC3)O1 (racemic) [Example 40, ethyl 2-((1,2,3,5,6,7-hexahydro-s-indacen-4-yl)amino)-5-(tetrahydrofuran-2-yl)-4,5-dihydrooxazole-5-carboxylate] | > 6.00 | – | –
22 | COC(=O)C1(c2cc(OC)on2)CN=C(Nc2c3c(cc4c2CCC4)CCC3)O1 (racemic) [Example 48, methyl 2-((1,2,3,5,6,7-hexahydro-s-indacen-4-yl)amino)-5-(5-methoxyisoxazol-3-yl)-4,5-dihydrooxazole-5-carboxylate] | > 6.00 | – | –
23 | COC(=O)C1(c2nccs2)CN=C(Nc2c3c(cc4c2CCC4)CCC3)O1 (racemic) [Example 62, methyl 2-((1,2,3,5,6,7-hexahydro-s-indacen-4-yl)amino)-5-(thiazol-2-yl)-4,5-dihydrooxazole-5-carboxylate] | > 6.00 | – | –
24 | CC(C)OC(=O)C1(c2ccon2)CN=C(Nc2c3c(cc4c2CCC4)CCC3)O1 (centres unmarked) [Example 56, Isopropyl 2-((1,2,3,5,6,7-hexahydro-s-indacen-4-vl)amino)-5-(isoxazol-3-yl)-4,5-dihvdrooxazole-5-carboxylate] | > 6.00 | – | –
25 | CC(C)c1cc(C2(C(=O)O)CN=C(Nc3c4c(cc5c3CCC5)CCC4)O2)no1 (racemic) [Example 27, 2-((1,2,3,5,6,7-hexahydro-s-indacen-4-yl)amino)-5-(5-isopropylisoxazol-3-yl)-4,5-dihydrooxazole-5-carboxylate] | 5.00 to 6.00 | – | –
26 | COC(=O)C1(c2cc(C(C)(C)O)on2)CN=C(Nc2c3c(cc4c2CCC4)CCC3)O1 (single isomer, unassigned) [Example 72, methyl 2-((1,2,3,5,6,7-hexahydro-s-indacen-4-yl)amino)-5-(5-(2-hydroxypropan-2-yl)isoxazol-3-yl)-4,5-dihydrooxazole-5-carboxylate] | > 6.00 | – | –
27 | CCOC(=O)C1(c2nccn2C)CN=C(Nc2c3c(c(F)c4c2CCC4)CCC3)O1 (racemic) [Example 37, ethyl 2-((8-fluoro-1,2,3,5,6,7-hexahydro-s-indacen-4-yl)amino)-5-(1-methyl-1H-imidazol-2-yl)-4,5-dihydrooxazole-5-carboxylate] | > 6.00 | – | –
28 | CCCOC(=O)C1(c2cc(C(C)(C)O)on2)CN=C(Nc2c3c(cc4c2CCC4)CCC3)O1 (racemic) [Example 74, propyl 2-((1,2,3,5,6,7-hexahydro-s-indacen-4-yl)amino)-5-(5-(2-hydroxypropan-2-yl)isoxazol-3-yl)-4,5-dihydrooxazole-5-carboxylate] | > 6.00 | – | –
